Assay results published in ChEMBL document CHEMBL1201862, “PubChem BioAssay data set” (2004).
Calls of active or inactive are those of the source.

What was measured:
[1] = Shn3 3'UTR reporter inhibitors, dose response, cell-based, Clone20 osteoblasts, firefly luciferase, cherry-picked (AID 624132); assay type: functional;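 note: firefly luciferase luminescence from reporter carrying the Shn3 3'UTR in osteoblasts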
[2] = HepG2 cell cytotoxicity, dose response, cytotoxicity control for Shn3 inhibitor project, CellTiter-Glo, cherry-picked (AID 624134); assay type: functional, cell-based
[3] = control 3'UTR Renilla luciferase suppression, dose response, counter-screen for Shn3 inhibitor project, cell-based, Clone20-Shn3RL, cherry-picked (AID 624133); assay type: functional
[4] = target: Luciferin 4-monooxygenase (Photinus pyralis, UniProt P08659); assay: firefly luciferase enzyme inhibitors, dose response, biochemical, luminescence (AID 1891)
Sequence of Luciferin 4-monooxygenase (P08659 whole entry): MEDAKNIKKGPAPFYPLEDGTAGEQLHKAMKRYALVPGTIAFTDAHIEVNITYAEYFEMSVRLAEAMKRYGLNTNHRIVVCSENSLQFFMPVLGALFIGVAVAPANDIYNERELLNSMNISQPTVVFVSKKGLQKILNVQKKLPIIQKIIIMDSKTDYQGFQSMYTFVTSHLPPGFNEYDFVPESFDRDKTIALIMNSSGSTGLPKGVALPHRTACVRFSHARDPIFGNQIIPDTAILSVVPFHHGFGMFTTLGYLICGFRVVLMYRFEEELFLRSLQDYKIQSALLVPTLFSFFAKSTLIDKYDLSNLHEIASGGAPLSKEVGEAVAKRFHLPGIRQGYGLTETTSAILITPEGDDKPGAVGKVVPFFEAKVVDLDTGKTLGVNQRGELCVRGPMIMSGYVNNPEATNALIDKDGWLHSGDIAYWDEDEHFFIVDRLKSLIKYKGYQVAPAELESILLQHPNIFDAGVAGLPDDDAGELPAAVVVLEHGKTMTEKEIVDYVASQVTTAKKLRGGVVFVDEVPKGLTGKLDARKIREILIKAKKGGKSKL

[5] = Luminescence Cell-Based Dose Confirmation HTS to Identify Inhibitors of Platelet Dense Granule Release. [Related pubchem assays: 1663 (Primary HTS), 1678 (Summary of Project)]; assay type: functional
Cytochrome P450 2C19 = Cytochrome P450 2C19 (Homo sapiens, UniProt P33261); assay: Cytochrome panel assay with activity outcomes. Panel member name: p450-cyp2c19 Compounds with AC50 equal or less than 10 uM are considered active; assay type: functional
Sequence of Cytochrome P450 2C19 (P33261 whole entry): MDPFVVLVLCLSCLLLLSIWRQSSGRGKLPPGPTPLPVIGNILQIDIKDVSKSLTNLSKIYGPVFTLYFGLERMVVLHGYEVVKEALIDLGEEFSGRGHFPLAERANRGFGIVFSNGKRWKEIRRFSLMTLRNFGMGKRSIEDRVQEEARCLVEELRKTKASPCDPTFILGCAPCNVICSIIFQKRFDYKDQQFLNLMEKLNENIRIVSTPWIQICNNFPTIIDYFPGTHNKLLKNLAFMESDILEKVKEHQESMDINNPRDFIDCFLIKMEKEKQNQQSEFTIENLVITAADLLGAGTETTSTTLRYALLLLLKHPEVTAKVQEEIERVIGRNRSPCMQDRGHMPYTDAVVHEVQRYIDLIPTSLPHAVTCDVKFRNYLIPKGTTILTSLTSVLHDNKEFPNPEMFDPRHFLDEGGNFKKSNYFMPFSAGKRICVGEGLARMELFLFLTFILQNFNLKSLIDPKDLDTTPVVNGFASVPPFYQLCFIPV

Cytochrome P450 2D6 = Cytochrome P450 2D6 (Homo sapiens, UniProt P10635);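 note: CYP2D6 member of a cytochrome P450 panel assay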
Sequence of Cytochrome P450 2D6 (P10635 whole entry): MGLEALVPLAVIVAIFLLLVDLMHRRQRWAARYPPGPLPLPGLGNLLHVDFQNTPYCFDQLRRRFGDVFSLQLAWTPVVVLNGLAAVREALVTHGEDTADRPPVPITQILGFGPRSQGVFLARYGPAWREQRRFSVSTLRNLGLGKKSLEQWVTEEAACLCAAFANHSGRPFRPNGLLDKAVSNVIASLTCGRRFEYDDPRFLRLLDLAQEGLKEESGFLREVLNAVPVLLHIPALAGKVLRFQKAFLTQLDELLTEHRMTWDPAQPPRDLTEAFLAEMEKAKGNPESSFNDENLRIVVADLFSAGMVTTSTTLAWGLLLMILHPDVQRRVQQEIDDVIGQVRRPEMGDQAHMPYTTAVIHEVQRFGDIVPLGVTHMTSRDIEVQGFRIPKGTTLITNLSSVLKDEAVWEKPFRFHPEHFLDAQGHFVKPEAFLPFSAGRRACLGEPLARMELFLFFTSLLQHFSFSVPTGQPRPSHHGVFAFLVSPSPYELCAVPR

Cytochrome P450 3A4 = Cytochrome P450 3A4 (Homo sapiens, UniProt P08684);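 note: CYP3A4 tested as one member of a cytochrome P450 panel screen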
Sequence of Cytochrome P450 3A4 (P08684 whole entry): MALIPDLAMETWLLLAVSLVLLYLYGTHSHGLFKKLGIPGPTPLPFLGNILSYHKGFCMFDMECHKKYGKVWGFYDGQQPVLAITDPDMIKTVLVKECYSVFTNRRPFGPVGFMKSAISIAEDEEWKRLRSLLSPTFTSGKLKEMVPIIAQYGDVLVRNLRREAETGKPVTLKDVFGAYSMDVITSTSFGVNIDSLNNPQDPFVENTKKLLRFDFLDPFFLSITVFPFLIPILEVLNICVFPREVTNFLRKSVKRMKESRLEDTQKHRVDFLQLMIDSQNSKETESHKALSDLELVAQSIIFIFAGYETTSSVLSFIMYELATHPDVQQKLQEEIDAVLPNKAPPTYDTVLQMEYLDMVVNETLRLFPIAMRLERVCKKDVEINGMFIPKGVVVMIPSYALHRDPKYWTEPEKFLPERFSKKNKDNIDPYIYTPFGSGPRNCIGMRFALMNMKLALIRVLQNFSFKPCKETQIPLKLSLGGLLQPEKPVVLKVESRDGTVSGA

[6] = Luminescence Cell-Based Dose Response HTS to Identify Inhibitors of 5'UTR Stem-Loop Driven Prion Protein mRNA Translation in H4 Neuroglioblastoma Cells. [Related pubchem assays: 1827 (Project Summary), 1813 (Primary HTS)]; assay type: functional
[7] = inhibitors of SNCA 5'UTR-driven reporter translation, confirmation, H4 neuroglioma cells, luminescence (AID 1988); assay type: functional, cell-based
[8] = target: T1, Replicative DNA helicase DnaB (Mycobacterium tuberculosis, UniProt P9WMR3); assay: DnaB intein splicing inhibitors, dose response, biochemical, cell-free fluorescence (AID 449749); assay type: functional
T1 sequence (P9WMR3 whole entry): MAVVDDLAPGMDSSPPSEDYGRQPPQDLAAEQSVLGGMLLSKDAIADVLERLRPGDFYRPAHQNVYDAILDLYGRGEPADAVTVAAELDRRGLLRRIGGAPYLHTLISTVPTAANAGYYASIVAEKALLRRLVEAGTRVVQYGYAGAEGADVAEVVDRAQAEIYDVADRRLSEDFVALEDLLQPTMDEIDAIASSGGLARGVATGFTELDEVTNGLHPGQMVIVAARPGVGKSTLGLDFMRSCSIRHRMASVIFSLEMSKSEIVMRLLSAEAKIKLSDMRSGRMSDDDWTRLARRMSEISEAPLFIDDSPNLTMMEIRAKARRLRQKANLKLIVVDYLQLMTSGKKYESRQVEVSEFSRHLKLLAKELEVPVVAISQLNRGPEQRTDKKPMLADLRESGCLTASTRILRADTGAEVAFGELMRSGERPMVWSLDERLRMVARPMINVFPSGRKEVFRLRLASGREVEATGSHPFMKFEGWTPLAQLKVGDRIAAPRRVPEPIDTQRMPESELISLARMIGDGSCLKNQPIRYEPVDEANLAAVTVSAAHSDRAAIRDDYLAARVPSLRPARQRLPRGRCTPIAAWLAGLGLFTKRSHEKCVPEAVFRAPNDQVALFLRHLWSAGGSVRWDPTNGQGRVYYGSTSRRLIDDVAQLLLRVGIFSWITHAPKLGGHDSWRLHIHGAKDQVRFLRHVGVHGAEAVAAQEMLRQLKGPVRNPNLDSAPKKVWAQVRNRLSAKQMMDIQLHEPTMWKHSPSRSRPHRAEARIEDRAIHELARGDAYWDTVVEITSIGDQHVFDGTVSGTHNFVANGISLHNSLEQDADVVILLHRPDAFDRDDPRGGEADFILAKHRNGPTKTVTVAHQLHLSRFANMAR

Protein RecA = target: T2, Protein RecA (Mycobacterium tuberculosis, UniProt P9WHJ3); assay: Fluorescence Cell-Free Homogeneous Dose Retest to Identify Inhibitors of RecA-Intein Splicing Activity. [Related pubchem assays (depositor defined):AID2097, AID2223, AID489010, AID492950]; assay type: functional
T2 sequence (P9WHJ3 whole entry): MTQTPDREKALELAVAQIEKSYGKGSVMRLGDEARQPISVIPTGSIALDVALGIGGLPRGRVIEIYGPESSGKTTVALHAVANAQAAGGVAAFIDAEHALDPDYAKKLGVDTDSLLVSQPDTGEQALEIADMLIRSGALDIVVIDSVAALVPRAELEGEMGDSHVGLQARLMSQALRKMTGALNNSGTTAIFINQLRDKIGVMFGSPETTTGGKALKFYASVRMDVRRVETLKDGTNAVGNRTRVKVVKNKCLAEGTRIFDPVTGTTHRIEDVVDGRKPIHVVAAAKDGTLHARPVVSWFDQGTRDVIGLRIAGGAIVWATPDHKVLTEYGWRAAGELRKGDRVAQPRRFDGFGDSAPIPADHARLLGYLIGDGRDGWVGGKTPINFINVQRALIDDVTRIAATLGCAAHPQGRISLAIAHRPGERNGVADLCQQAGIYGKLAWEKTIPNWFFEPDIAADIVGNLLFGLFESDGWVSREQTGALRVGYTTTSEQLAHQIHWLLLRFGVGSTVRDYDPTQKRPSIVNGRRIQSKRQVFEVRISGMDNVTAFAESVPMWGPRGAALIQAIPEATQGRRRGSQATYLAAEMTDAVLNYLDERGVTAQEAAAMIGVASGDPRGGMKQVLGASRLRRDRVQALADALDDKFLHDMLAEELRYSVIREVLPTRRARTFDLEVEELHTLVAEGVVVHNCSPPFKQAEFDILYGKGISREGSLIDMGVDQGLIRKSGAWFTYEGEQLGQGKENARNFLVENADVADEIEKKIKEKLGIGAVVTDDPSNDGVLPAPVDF

[9] = inhibitors of intracellular T. cruzi replication, confirmation, NIH3T3 host cells, beta-gal luminescence (AID 2044); assay type: functional, cell-based;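 note: intracellular parasites grown in NIH/3T3 mouse fibroblasts as host cells; luminescent beta-galactosidase reporter signal from transgenic T. cruzi replicating inside host cells; inhibitors lower the luminescence signal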
[10] = cytotoxicity toward NIH3T3 fibroblasts, dose response, counter-screen, cell-based, ATP luminescence, mouse fibroblasts (AID 2010); assay type: functional;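 note: cells exposed to compound for about 90 hours before reading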
cells [11] = assay type: functional, cell-based
cells [12] = assay type: functional, cell-based; remark: listed apart in the source
Cytochrome P450 1A2 = target: T3, Cytochrome P450 1A2 (Homo sapiens, UniProt P05177);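 note: PubChem cytochrome P450 panel assay, CYP1A2 panel member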
T3 sequence (P05177 whole entry): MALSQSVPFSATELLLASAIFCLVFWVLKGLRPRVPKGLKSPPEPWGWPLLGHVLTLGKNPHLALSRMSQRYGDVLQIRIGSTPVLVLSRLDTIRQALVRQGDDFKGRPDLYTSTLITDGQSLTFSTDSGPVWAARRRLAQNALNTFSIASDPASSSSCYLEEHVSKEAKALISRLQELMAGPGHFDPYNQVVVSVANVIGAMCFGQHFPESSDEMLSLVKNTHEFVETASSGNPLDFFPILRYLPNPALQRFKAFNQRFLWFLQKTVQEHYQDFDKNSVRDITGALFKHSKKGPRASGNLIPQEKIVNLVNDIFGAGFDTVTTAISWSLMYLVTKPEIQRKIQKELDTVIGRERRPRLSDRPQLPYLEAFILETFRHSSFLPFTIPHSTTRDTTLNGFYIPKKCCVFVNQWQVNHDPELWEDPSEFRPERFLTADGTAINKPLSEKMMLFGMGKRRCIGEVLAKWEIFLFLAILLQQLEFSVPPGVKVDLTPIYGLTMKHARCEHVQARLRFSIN

[13] = Luminescence Cell-Based Dose Confirmation HTS to Identify Activators of 5'UTR Stem-Loop Driven Alpha-Synuclein mRNA Translation in H4 Neuroglioblastoma Cells. [Related pubchem assays: 1829 (Project Summary), 1814 (Primary HTS)]; assay type: functional
[14] = Luminescence Cell-Based Dose Response HTS to Identify Activators of Luciferase Translation or Activity in H4 […] Cells. [Related pubchem assays: 1829 (Project Summary), 1814 (Primary HTS)]; assay type: functional
H4 = assay: Luminescence Cell-Based Dose Response HTS to Identify Activators of 5'UTR Stem-Loop Driven Prion Protein mRNA Translation in H4 Neuroglioblastoma Cells. [Related pubchem assays: 1829 (Project Summary), 1814 (Primary HTS)]; assay type: functional; details: Homo sapiens

NC(=O)CC(NC(=O)c1ccc(Br)cc1)c1ccc(N2CCC(Br)CC2)c([N+](=O)[O-])c1 (stereo unspecified)
AC50 [1]: 4.19 µM (active)
AC50 [2]: 62.8 µM (active)
AC50 [3]: 17.5 µM (active)

CN(C(=O)c1cc(S(=O)(=O)N2CCc3ccccc32)cn1C)C1CCCCC1
EC50 [4]: > 112 µM (not active)
EC50 [5]: > 112 µM (not active)

Cc1ccc(CS(=O)(=O)CCC(=O)NCCN2CCCC2)cc1
AC50 (Cytochrome P450 2C19; read-out: AC50): 39.8 µM (inconclusive)
AC50 (Cytochrome P450 2D6): 0.1 µM (inconclusive)
AC50 (Cytochrome P450 3A4): 25.1 µM (inconclusive)

Cc1cccc(CNc2cc(-c3ccccc3CN(C)C)ncn2)c1
AC50 (Cytochrome P450 2C19): inconclusive
AC50 (Cytochrome P450 2D6): 20 µM (inconclusive)

Nc1ncnc(N)c1N=Nc1ccccc1
EC50 [6]: 15.7 µM (active)
EC50 [7]: 11.2 µM (active)

Cc1nn(-c2ccccc2)c2c1C(c1ccncc1)C(C#N)=C(N)O2 (stereo unspecified)
AC50 [8]: 12.7 µM (active)
EC50 (Protein RecA): 3.05 µM (active)

FC(F)(F)c1ccccc1-c1nccc(NCCN2CCOCC2)n1
AC50 (Cytochrome P450 2C19; read-out: AC50): 6.31 µM (inconclusive)
AC50 (Cytochrome P450 2D6): 12.6 µM (inconclusive)

CCc1cccc(NC2c3ccccc3C(=O)N2c2cccnc2)c1 (stereo unspecified)
EC50 [4]: > 112 µM (not active)
EC50 [5]: > 112 µM (not active)

N=C(N)SCc1cn(-c2ccccc2)nc1-c1ccc(Br)cc1
EC50 [9]: 1.03 µM (active)
EC50 [10]: 11.2 µM (active)
AC50 [8]: 8.68 µM (active)
EC50 (Protein RecA): 11 µM (active)

Cc1cnc(C)c(N2CCN(Cc3nc(-c4ccccc4)no3)CC2)n1
EC50 [4]: > 112 µM (not active)
EC50 [5]: > 112 µM (not active)

CCOC(=O)CSc1nc(=O)c(NCC(=O)OC)n[nH]1
AC50 [8]: 12 µM (active)
EC50 (Protein RecA): 5.87 µM (active)

O=C1CSCN1c1ccc(Cl)cc1
EC50 (cells [11]): > 350 µM (not active)
EC50 (cells [12]): > 350 µM (not active)

O=C1Oc2ccccc2C(=O)/C1=C\N1C(=O)N/C(=C\c2ccccc2O)C1=O
AC50 (Cytochrome P450 2C19; read-out: AC50): 6.31 µM (inconclusive)
AC50 (Cytochrome P450 2D6): 3.98 µM (inconclusive)
AC50 (Cytochrome P450 1A2): 0.316 µM (inconclusive)
AC50 (Cytochrome P450 3A4): 3.98 µM (inconclusive)

O=C(O)C1C2CCC(C2)C1C(=O)Nc1ccccc1 (stereo unspecified)
EC50 [4]: > 112 µM (not active)
EC50 [5]: > 112 µM (not active)

CC1CCCC(C)N1C(=O)COC(=O)CNC(=O)c1sc2ccccc2c1Cl (stereo unspecified)
EC50 [4]: > 112 µM (not active)
EC50 [5]: > 112 µM (not active)

CCOC(=O)CNC(=O)CSc1nnc(Cn2cnc3ccccc32)n1C
EC50 (cells [11]): > 350 µM (not active)
EC50 (cells [12]): > 350 µM (not active)

CCCS(=O)(=O)N1CCCC(C(=O)NCCCN2CCN(c3ccc(F)cc3)CC2)C1 (stereo unspecified)
AC50 (Cytochrome P450 2D6): 5.01 µM (inconclusive)

C1CCC2(CC1)C1=C(CCCC1)Nc1nnnn12
EC50 (cells [11]): > 350 µM (not active)
EC50 (cells [12]): > 350 µM (not active)

Cc1ccc(-n2nc(C)c3c2OC(N)=C(C#N)C3c2cccs2)cc1 (stereo unspecified)
EC50 [13]: > 120 µM (not active)
EC50 [14]: 33 µM (active)
EC50 (H4): > 120 µM (not active)
AC50 [8]: 3.81 µM (active)

O=C(N1CCN(Cc2ccccc2)CC1)C12CC3CC(CC(C3)C1)C2
EC50 [4]: > 112 µM (not active)
EC50 [5]: > 112 µM (not active)

C=CCN(c1ccccc1)S(=O)(=O)c1cccc(C(=O)Nc2nc3ccccc3[nH]2)c1
AC50 [1]: 10.1 µM (active)
AC50 [2]: 49.7 µM (active)
AC50 [3]: 27.8 µM (active)

O=C(c1ccco1)c1cn(CC(=O)N2CCCc3ccccc32)c2ccccc12
EC50 [4]: > 112 µM (not active)
EC50 [5]: > 112 µM (not active)

O=C(CN(Cc1ccccc1Cl)C(=O)c1ccc(CN2CCOCC2)o1)NCc1ccccc1
EC50 [4]: > 112 µM (not active)
EC50 [5]: 62.6 µM (active)

Nc1cccc(-c2nc3ccc(N)cc3s2)c1
EC50 [4]: 2.3 µM (active)
EC50 [5]: < 0.701 µM (active)

CCOC(=O)COc1cccc2c(=O)n(CC(=O)N3CCN(C(=O)OCC)CC3)ccc12
EC50 [4]: > 112 µM (not active)
EC50 [5]: > 112 µM (not active)

NCCCN1CCN(c2ccccc2)CC1
AC50 (Cytochrome P450 2D6): 3.16 µM (inconclusive)

COc1ccc(/C=C2/C(=O)N(c3ccccc3)N=C2C)cc1
AC50 [8]: 4.44 µM (active)
EC50 (Protein RecA): 1.7 µM (active)

COc1cc(C2(c3ccc(O)c(OC)c3)C(=O)Nc3c(C)cc(Br)cc32)ccc1O
AC50 [8]: 5.77 µM (active)
EC50 (Protein RecA): 14.4 µM (active)

CCOC(=O)N1CCC(/N=c2/c(-c3ccccc3)c(O)c2=O)CC1
EC50 (cells [11]): > 350 µM (not active)
EC50 (cells [12]): > 350 µM (not active)

C/C(CC(=O)Nc1ccc(F)cc1F)=N\NC(=O)C(=O)N1CCCCC1
AC50 [8]: 5 µM (active)
EC50 (Protein RecA): 1.8 µM (active)

O=C(N/N=C/c1ccccn1)c1ccc(Br)cc1
EC50 (cells [11]): 15.2 µM (active)
EC50 (cells [12]): > 350 µM (not active)

CCCCCC(=O)O[C@]1(C(C)=O)CC[C@H]2[C@@H]3CCC4=CC(=O)CC[C@]4(C)[C@H]3CC[C@@]21C [HYDROXYPROGESTERONE CAPROATE]
AC50 [8]: 11.9 µM (active)
EC50 (Protein RecA): 4.88 µM (active)
